Reference: publication PMC4728427, “Mechanism of allosteric activation of TMEM16A/ANO1 channels by a commonly used chloride channel blocker” (British Journal of Pharmacology, 2016)

Biological target: T1, Mouse TMEM16A (Mus musculus, UniProt Q8BHY3)
T1 construct: expressed in transfected cells; host or cells: HEK-293T
T1 sequence (Q8BHY3 1-960): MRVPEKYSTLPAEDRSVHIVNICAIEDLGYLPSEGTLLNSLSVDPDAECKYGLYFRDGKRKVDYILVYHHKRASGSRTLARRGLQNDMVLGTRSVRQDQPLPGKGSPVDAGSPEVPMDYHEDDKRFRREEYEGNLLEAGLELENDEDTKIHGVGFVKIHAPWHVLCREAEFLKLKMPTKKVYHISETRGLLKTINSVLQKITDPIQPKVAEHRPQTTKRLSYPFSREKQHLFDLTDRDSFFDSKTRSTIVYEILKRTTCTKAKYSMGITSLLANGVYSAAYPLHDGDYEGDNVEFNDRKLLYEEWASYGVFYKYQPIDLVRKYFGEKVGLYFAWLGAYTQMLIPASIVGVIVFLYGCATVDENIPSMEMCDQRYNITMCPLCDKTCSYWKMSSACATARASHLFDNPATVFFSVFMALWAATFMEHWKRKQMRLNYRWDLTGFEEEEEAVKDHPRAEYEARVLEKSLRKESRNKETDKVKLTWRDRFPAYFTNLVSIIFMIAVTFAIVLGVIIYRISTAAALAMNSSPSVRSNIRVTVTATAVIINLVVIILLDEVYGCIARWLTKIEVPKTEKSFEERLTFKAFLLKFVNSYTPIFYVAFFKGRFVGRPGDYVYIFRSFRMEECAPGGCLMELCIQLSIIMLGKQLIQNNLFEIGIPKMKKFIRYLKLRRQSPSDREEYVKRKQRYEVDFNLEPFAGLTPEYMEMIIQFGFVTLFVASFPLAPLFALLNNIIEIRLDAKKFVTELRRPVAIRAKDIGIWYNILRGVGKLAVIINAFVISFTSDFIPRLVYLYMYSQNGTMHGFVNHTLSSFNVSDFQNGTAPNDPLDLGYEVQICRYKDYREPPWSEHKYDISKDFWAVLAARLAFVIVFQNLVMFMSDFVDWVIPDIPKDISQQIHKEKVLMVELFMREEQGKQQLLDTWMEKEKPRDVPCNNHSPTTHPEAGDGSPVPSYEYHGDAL
Experiment: Whole-cell TMEM16A current versus Vm relationship with extracellular A9C, 300 nM [Ca2+]i
Assay type: cell-based
Procedure: Mouse TMEM16A (GenBank NM_178642) subcloned into pcDNA3.1 vector was used in this study (Alexander et al., 2013). HEK‐293T cells were cultured as previously described (Smith et al., 2013) and transfected with 0.5–1 μg of TMEM16A and 0.1 μg of CD8 constructs using Fugene HD (Promega, Madison, WI, USA) according to the manufacturer's instructions. Cells were used ~12–36 h after transfection. Transfected cells were visualized using the anti‐CD8 antibody‐coated beads method (Jurman et al., 1994).
TMEM16A currents were measured with the whole‐cell or inside‐out patch configuration of the patch‐clamp technique as detailed in the Supporting Information. The exchange of solutions was achieved by using a local perfusion system consisting of eight tubes of 1.2 mm diameter in which the tip of the patch pipette was inserted. In some experiments, ultra‐rapid (<50 ms) changes in A9C concentration ([A9C]) (‘concentration jumps’) were achieved using a computer‐controlled perfusion system (Warner Instruments, Hamden, CT, USA).
The intracellular solution contained (mM) 130 CsCl, 10 EGTA, 1 MgCl2, 10 HEPES and 8 CaCl2 to obtain ~300 nM of [Ca^2+]i; pH was adjusted to 7.3 with NaOH. The intracellular solutions containing ~600 nM, ~1000 nM and ~12.5 μM [Ca^2+]i were obtained by replacing EGTA with equimolar H‐EDTA and by adding 2.1, 3.1 and 7.8 mM CaCl2 respectively. The extracellular solution contained (mM) 150 NaCl, 1 CaCl2, 1 MgCl2, 10 glucose, 10 D‐mannitol and 10 HEPES; pH was adjusted to 7.4 with NaOH. […] A9C was dissolved in DMSO (stock concentration, 300 mM); thus, the final concentration of DMSO was ≤1%. Aliquots of the stock solution were kept at −20° and used within 5 days.
Current versus V m relationships were constructed by measuring currents in response to 1 s V m steps (test pulses) from −100 to +100 mV in 40 mV increments (unless stated otherwise) after a 1 s V m step to +70 mV (pre‐pulse). Pulses were elicited every 2 s from a holding V m of 0 mV. Steady‐state currents were measured at the end of the test pulses. As detailed in the Results, in the presence of 300 nM [Ca^2+]i and extracellular A9C, the test‐pulse currents reached a peak within the first ~50 ms of the test pulse. These peak currents were also measured and plotted against the V m of the test pulse. Current density was obtained by dividing the current amplitude for the cell capacitance.
For determination of the current reversal potential (E rev), instantaneous currents were estimated from extrapolation of single exponential fits of the test‐pulse currents to the beginning of each test pulse. These instantaneous current values were plotted as a function of the V m, and the relative chord conductance was measured between an interval of ±20 m V around the E rev (Tammaro et al., 2005; Adomaviciene et al., 2013).
The project began by examining if this also applies to cloned TMEM16A channels. In the presence of increasing extracellular [A9C] ([A9C]ext), a pre‐pulse of +70 mV was used to open TMEM16A channels followed by a series of test pulses (Figure 1).
Ta C.M., Adomaviciene A., Rorsman N., Garnett H. and Tammaro P.
SUPPLEMENTARY INFORMATION
TMEM16A currents were measured with the whole-cell or inside-out configuration of
the patch-clamp technique using an Axon 200B amplifier (Molecular Devices, USA)
controlled with GE-pulse software (http://users.ge.ibf.cnr.it/pusch/programs-mik.htm).
Currents were filtered at 2-5 kHz and sampled at 10 kHz, unless stated otherwise. […]

peak current at −100 mV relative to control (3000 μM A9C extracellular): ~ 13 folds
steady-state current decrease (3000 μM [A9C]ext, Vm > 60 mV, whole-cell): up to approximately threefold
E rev of TMEM16A currents (3000 μM [A9C]ext, control 4.5 ± 1.4 mV): 8.3 ± 1.4 mV
steady-state current increase ([A9C]ext ≤ 100 μM, Vm > 60 mV, whole-cell): ~ 1.3 folds
steady-state current change at Vm ≤ 60 mV (any [A9C]ext tested (30-3000 μM)): did not change substantially
Compound: O=C(O)c1c2ccccc2cc2ccccc12 [A9C, Anthracene‐9‐carboxylic acid]
